# Source: publication PMC10945559, “Forgotten Natural Products: Semisynthetic Development of Blasticidin S As an Antibiotic Lead” (ACS Medicinal Chemistry Letters, 2024)
# Where two headings read alike, the source gives them in different places.
# Assays:
# [1] = tested on: Klebsiella pneumoniae ATCC 29665; test: Broth microdilution antibacterial assay; assay type: cell-based
# Method: (§1) Antibacterial Assay Procedure
# (§2) Broth Microdilution Assays
# (§3) Media and solutions were autoclaved or sterile filtered prior to use and manipulations were carried out in a laminar flow hood. Antibacterial testing was performed in polypropylene 96 -well flat bottom plates. The minimal inhibitory concentration of blasticidin S ( 1) hydrochloride, P10 (2), and derivatives 15–22 were assessed against Staphylococcus aureus ΔNorA, S. aureus 8810, methicillin-resistant S. aureus (MRSA) ATCC 43300, Enterococcus faecalis ATCC 29212, vancomycin-resistant Enterococcus, Klebsiella pneumoniae ATCC 29665, Pseudomonas aeruginosa, and Acinetobacter baumannii ATCC 17978 using serial dilutions. Doxycycline (Gold Bio) as a positive control and the vehicle as a negative control. Stock solutions of each compound were prepared at 5.12 mg/mL in 50% DMSO/water and serially diluted in 50% DMSO/water to create master plates. From the master plates, 10 μL of each dilution was applied to test plates using a Bravo automated liquid transfer system (Agilent). Bacteria previously grown overnight (37 °C, 120 – 200 RPM), in LB broth were diluted to an OD600 of 0.0 5 in cation-adjusted Mueller-Hinton broth, grown to an OD600 of ~0.5, and diluted to an OD600 of 0.004 in cation-adjusted Mueller-Hinton broth. These diluted cultures were applied to the test plates (190 μL per test well) resulting in final concentrations of the test compounds of 256–2 μg/mL. Growth controls (wells with inoculated media but no vehicle or test compounds) were included to assess any potential toxicity from the vehicle. The plates were incubated at 37 °C for 16–18 h, except for VRE and E. faecalis, which were incubated at 37 °C for 24 h. Inhibition was determined by measuring the optical density at 600 nm (OD600) with a Cytation 3 plate reader (BioTek). The optical density measurements were normalized to the positive and negative controls and the vehicle and growth controls were compared and found to be indistinguishable, indicating no toxicity from the vehicle used. The MIC was the lowest concentration that inhibited >90% of growth. Two biological replicates were performed in duplicate. MIC values are reported […]
# (§4) as a range from biological replicates. Inhibition curves were generated using Prism (GraphPad).
# (§5) The IC50 values reported in Table 2 are the average of the two biological replicates ± standard […]
# (§6) Cytotoxicity Assay Procedure
# (§7) Human lung fibroblast cells, MRC -5 (CCL-171), were cultured at 37℃ with 5% CO2 and were plated at 5000 cells/well in a 96 -well plate. Compounds 1, 2, and 15-22 were initially prepared at concentrations of 5.12 mg/mL in a vehicle of 50% DMSO. Dilutions of the compounds (4 – 512 μg/mL) were then prepared in growth medium containing Dulbecco’s modified Eagle’s medium (DMEM) with high glucose, L -glutamine, and sodium pyruvate supplemented with 10% fetal bovine serum (FBS), 1% non -essential amino acids, and 0.1% gentamicin sulfate, and 25mM HEPES. The vehicle (50% DMSO) was also prepared via the sa me dilution series to serve as a control. Growth media was removed from the cells and replaced with the same volume of each compound dilution. Cells were incubated for 24 h , after which CellTiter 96® AQueous One Solution Reagent was added to each well as recommended by the manufacturer’s protocol (Promega CellTiter 96 AQueous One Solution Cell Proliferation Assay) and further incubated for 4 h. After incubation, absorbance was measured at 490 nm on an Infinite M plex multimode microplate reader with i -control Tecan software. Viability was calculated by subtracting media only absorbance values and normalizing to the vehicle control at each concentration. The presented data is one assay performed in triplicate that is representative of multiple trials. Data for the 256 and 512 μg/mL concentrations were removed from analysis due to vehicle toxicity […]
# (§8) CC50 concentrations were determined via the ED50 Plus v1.0 software (https://archive.org/details/ed50v10_zip).
# [2] = tested on: Enterococcus faecalis ATCC 29212; test: Broth microdilution antibacterial assay; assay type: cell-based
# Method: as §1, §2, §3, §4, §5, §6, §7, §8
# [3] = tested on: Acinetobacter baumannii ATCC 17978; test: Broth microdilution antibacterial assay; assay type: cell-based
# Method: as §1, §2, §3, §4, §5, §6, §7, §8
# [4] = tested on: vancomycin-resistant Enterococcus (VRE); test: Broth microdilution antibacterial assay; assay type: cell-based
# Method: as §1, §2, §3, §4, §5, §6, §7, §8
# [5] = tested on: Staphylococcus aureus ΔNorA; test: Broth microdilution antibacterial assay; assay type: cell-based
# Method: as §1, §2, §3, §4, §5, §6, §7, §8
# Pseudomonas aeruginosa = test: Broth microdilution antibacterial assay; assay type: cell-based
# Method: as §1, §2, §3, §4, §5, §6, §7, §8
# [6] = tested on: MRC-5 lung fibroblast cells; test: in vitro; assay type: cell-based, human; details: average of SI (CC50/IC50) over the bacteria tested
# Method: as §4, §5, §6, §7, §8
# (§9) Figure S41. The effect of compounds on cell viability. The lines represent non -linear regression curves, and error bars represent means ± […]
# (§10) SD (n=3). […]
# in vitro = assay type: cell-based, human; details: human; MRC-5 (lung fibroblast); 24 h; one biological replicate (n = 3); read-out: CC50 for human cells
# Method: as §4, §5, §6, §7, §8, §9, §10
# [7] = parameters: method as in PMID 5842139; details: cited from earlier work
# S. aureus 8810 = test: Broth microdilution antibacterial assay; assay type: cell-based, Staphylococcus aureus
# Method: as §1, §2, §3, §4, §5, §6, §7, §8
# [8] = tested on: methicillin-resistant S. aureus (MRSA) ATCC 43300; test: Broth microdilution antibacterial assay; assay type: cell-based, Staphylococcus aureus
# Method: as §1, §2, §3, §4, §5, §6, §7, §8
# [9] = Klebsiella pneumoniae, ATCC29665
# [10] = Acinetobacter baumannii, ATCC17978
structure (smiles),measurement,setting,value
"CN(CC[C@H](N)CC(=O)N[C@H]1C=C[C@H](n2ccc(N)nc2=O)O[C@@H]1C(=O)O)C(=N)N [Compound 1, blasticidin S]",IC50,[1]; [9],42.3 ± 3.5 µg/mL
same,MIC,[1]; [9],128 µg/mL
same,Selectivity index (CC50/IC50),[1]; MRC-5 CC50 / K. pneumoniae IC50,0.5
same,IC50,"[2]; Enterococcus faecalis, ATCC29212",26.3 ± 13 µg/mL
same,MIC,"[2]; Enterococcus faecalis, ATCC29212, 24 h",32 to 64 µg/mL
same,MIC,"[2]; Enterococcus faecalis, ATCC29212, read-out: Average Activity against E. faecalis",64 µg/mL
same,Selectivity index (CC50/IC50),[2]; MRC-5 CC50 / E. faecalis IC50,0.8
same,IC50,[3]; [10],104 ± 25 µg/mL
same,MIC,[3]; [10],> 256 µg/mL
same,Selectivity index (CC50/IC50),[3]; MRC-5 CC50 / A. baumannii IC50,0.2
same,IC50,"[4]; Enterococcus, VRE",58 ± 9.4 µg/mL
same,MIC,"[4]; Enterococcus, VRE, 24 h",256 µg/mL
same,MIC,"[4]; Enterococcus, VRE, read-out: Average Activity against VRE",256 µg/mL
same,Selectivity index (CC50/IC50),[4]; MRC-5 CC50 / VRE IC50,0.3
same,Selectivity index (CC50/IC50),[5]; MRC-5 CC50 / S. aureus ΔNorA IC50,0.1
same,IC50,[5]; Staphylococcus aureus,140 ± 8.7 µg/mL
same,MIC,[5]; Staphylococcus aureus,> 256 µg/mL
same,Selectivity index (CC50/IC50),Pseudomonas aeruginosa; MRC-5 CC50 / P. aeruginosa IC50,0.3
same,IC50,Pseudomonas aeruginosa; Pseudomonas aeruginosa,61 ± 6 µg/mL
same,MIC,Pseudomonas aeruginosa; Pseudomonas aeruginosa,256 µg/mL
same,average selectivity index,[6],0.4
same,CC50 at 24 h,in vitro,20.1 µg/mL
same,pKa,[7]; primary amine,8.0
same,pKa,[7]; protonated guanidine,> 12.5
same,Selectivity index (CC50/IC50),S. aureus 8810; MRC-5 CC50 / S. aureus IC50,0.6
same,IC50,"S. aureus 8810; Staphylococcus aureus, 8810",33.2 ± 0.8 µg/mL
same,MIC,"S. aureus 8810; Staphylococcus aureus, 8810",> 256 µg/mL
same,MIC,"S. aureus 8810; Staphylococcus aureus, 8810, read-out: Average Activity against S. aureus",> 256 µg/mL
same,Selectivity index (CC50/IC50),[8]; MRC-5 CC50 / MRSA IC50,0.3
same,IC50,[8]; Staphylococcus aureus,59.7 ± 7.8 µg/mL
same,MIC,[8]; Staphylococcus aureus,256 µg/mL
same,MIC,"[8]; Staphylococcus aureus, read-out: Average Activity against MRSA",256 µg/mL
